Reference: patent publication US7510850B2, “Isolation of the mitotic spindle matrix and its methods of use” (Carnegie Institution of Washington, priority 2005, dated 2009)

Columns and labels:
Mouse ES cells = assay: Mitotic arrest of mouse ES cells; format: cell-based; conditions: nocodazole 400 nM, about 12 hours
Protocol: FIG. 9: Induction of mitotic spindle matrix assembly by RanGTP and AurA-beads in mouse ES cells. Mouse ES cells were arrested in mitosis using nocodazole. 70-90% mitotic arrest can be achieved after about 12 hours of nocodazole (400 nM) treatment. The ES cells were washed in PBS and the cell pellet was snap frozen in liquid nitrogen. To make the cell lysate, an energy mix, which contains 0.5 mg/ml delta 90 cyclin B, 10 mM ATP, 100 mM creatine phosphate, 0.5 mg/ml creatine kinase, that equals to 5% of the volume of the ES cell pellet was used to resuspend the ES cell pellet. A ˜2-second sonication was used to disrupt the cell followed by centrifugation to make clarified and concentrated ES cell lysates. RanGTP and AurA-beads were added to the lysate to induce the assembly of mitotic spindle matrix. Shown are matrices that were double labeled with tubulin and lamin B, Sox2, or nanog. AurA-beads (2.8 μm) embedded in the matrices serve as reference for the scale.

LB3-matrix = LB3-matrix assembly in egg extracts (AurA-beads plus RanGTP or sperm chromatin); format: biochemical, Xenopus
Protocol: Two methods were used to assay for LB3-matrix assembled in egg extracts. In the first method, spindle assembly was induced with either sperm or AurA-beads plus RanGTP. After incubation, 10 μl of egg extract was diluted into 1 ml XB buffer containing nocodazole (10 μM final concentration) and incubated at room temperature for 10 to 15 minutes to depolymerize MTs. In the second method, egg extracts were incubated with either sperm or AurA-beads plus RanGTP in the presence of 10 μM nocodazole at room temperature for the same time as for spindle assembly reactions. After incubated the egg extracts were diluted into 1 ml BRB80 buffer containing 30% glycerol. LB3-matrix assembled in both methods was spun onto coverslips through 3 ml BRB80 buffer containing 40% glycerol in the same manner as MT spin-down. The LB3-matrix were fixed with methanol (−20° C.) and stained with either polyclonal or monoclonal antibodies to LB3.
To detect the membrane in the lamin B matrix, spindles and LB3-matrices were assembled and spun onto coverslips as described above. The coverslips were incubated in BRB80 containing 20% sucrose and 1 μM Vybrant CM-Dil (Molecular Probes, V22888) for 5 minutes at room temperature and then washed briefly in BRB80 containing 20% sucrose. […]

mitotic spindle = assay: Spindle assembly in Xenopus egg extract; format: biochemical; conditions: sperm or RanGTP plus AurA-beads; LB3T, LB3T-nls 10 μM; ΔNLB3, wild-type LB3 2 μM
Protocol: CSF-arrested Xenopus egg extracts, Xenopus sperm, and AurA-beads were prepared as described. […] Spindle assembly reactions were incubated at room temperature for 60 to 90 minutes with sperm or for 10 to 30 minutes with AurA-beads and RanGTP. To immunodeplete LB3, monoclonal antibody or polyclonal antibody to LB3 was coupled to protein A magnetic or agarose beads. IgG from non-immunized rabbits (Jackson Laboratory) was used for mock-depletion. To inhibit LB3 assembly with dominant negative LB3 mutants, LB3T and LB3T-nls were added at 10 μM final concentration, ΔNLB3 and wild-type LB3 were added at 2 μM final concentration to the egg extracts and incubated for 20 minutes before spindle assembly assays.

COC(=O)Nc1nc2ccc(C(=O)c3cccs3)cc2[nH]1 [nocodazole]
mitotic arrest (Mouse ES cells): 70-90%
sperm around which LB3-matrix was still assembled (LB3-matrix; MT assembly inhibited by nocodazole): more than half

triton X100
lamin B matrix integrity (LB3-matrix; 0.1% in XB containing nocodazole, 10 min at room temperature): completely disrupted

B1: wild-type LB3: lamin B3, the major form of lamin B in Xenopus eggs, 6His fusion protein (protein)
chain: MATSTPSRAREHASAAQSPGSPTRISRMQEKEDLRHLNDRLAAYIERVRSLEADKSLLKIQLEEREEVSSREVTNLRQLYETELADARKLLDQTANERARLQVELGKVREEYRQLQARNSKKENDLSLAQNQLRDLESKLNTKEAELATALSGKRGLEEQLQEQRAQIAGLESSLRDTTKQLHDEMLWRVDLENKMQTIREQLDFQKNIHTQEVKEIKKRHDTRIVEIDSGRRVEFESKLAEALQELRRDHEQQILEYKEHLEKNFSAKLENAQLAAAKNSDYASATREEIMATKLRVDTLSSQLNHYQKQNSALEAKVRDLQDMLDRAHDMHRRQMTEKDREVTEIRQTLQGQLEEYEQLLDVKLALDMEINAYRKMLEGEEQRLKLSPSPSQRSTVSRASTSQTSRLLRGKKRKLDETGRSVTKRSYKVVQQASSTGPVSVEDIDPEGNYVRLLNNTEEDFSLHGWVVKRMHMSLPEIAFKLPCRFILKSSQRVTIWAAGAGAVHSPPTDLVWKSQKTWGTGDNIKITLLDSTGEECAERTLYRVIGEEGETDEDFVEEEELERQFRSQSHQSVDPSC
spindle assembly (mitotic spindle): neither buffer control nor wild-type LB3 affected
